{"source": "patent US12433864B2", "about": "“5,6-diHETE lactone for treatment of microvascular dysfunction” (MIGAL GALILEE RESEARCH INSTITUTE LTD., priority 2019, dated 2025)", "key": {"HUVEC": {"tested_on": "HUVEC", "assay": "Calcium imaging, intracellular [Ca2+]i increase in HUVEC", "assay_type": "cell-based, human", "method": "HUVECs were plated onto 24-well plates and grown to 70% confluence. To monitor cytosolic Ca^2+ signals, cells were loaded with fluo-3 AM (4 μmol/L; Molecular Probes) and incubated for 40 min at 37° C. in complete medium that contained […] pluronic acid. After washing twice with HEPES buffer that contained (in mmol/L) 1.25 CaCl2, 5.5 D-glucose, 10 HEPES, 5 KCl, 0.5 MgCl2, and 140 NaCl (brought to pH 7.4 with NaOH); the plates were incubated at 37° C. for 15 additional minutes prior to fluorescence imaging. Fluorescence images were acquired every 1 s over the course of 5 min in cells treated with 4α-phorbol-12, 13-didecanoate (4α-PDD; a specific TRPV4 agonist; 10 μmol/L), 5,6-diHETE ((±)5,6-dihydroxy-8Z,11Z,14Z,17Z-eicosatetraenoic acid) 1, 5 lactone (0.01-5 μmol/L) and 5,6-diHETE (hydrolytic isomer of 5,6-EEQ; 2 and 5 μmol/L). The calculated ratio between maximal intensity (F1) and basal intensity (F0) was determine for each experiment and presented as Average±SD.\nTo investigate the effect of 5,6-diHETE ((±)5,6-dihydroxy-8Z,11Z,14Z,17Z-eicosatetraenoic acid) lactone on cytosolic [Ca^2+]i (FIG. 1), HUVECs were exposed to graded doses of 5,6-diHETE lactone (0.01-5 μmol/L) in ethanol/HEPES buffer, and the intracellular changes in [Ca^2+] were determined by the mean of fluoresces intensity. […] No significant differences in cytosolic [Ca^2+]i levels were detected beyond 0.5 μM lactone. Above this concentration the cytosolic [Ca^2+]i levels reach saturation.\nThese rapid pathways result in the reduction of epoxide concentrations, and thus, in a decrease in their activity. We therefore tested the ability of the hydrolyzed form compared to the unhydrolyzed form to increase intracellular calcium (FIG. 2)."}, "rat mesenteric arteries": {"tested_on": "rat mesenteric arteries", "assay": "Relaxation of rat mesenteric arteries from NT and 5/6Nx rats (wire myograph)", "settings": "acetylcholine concentration response, n=7-13"}, "[1]": {"tested_on": "Sprague-Dawley 5/6Nx rats", "assay": "Direct blood pressure measurement in 5/6Nx rats after acute injection", "assay_type": "in vivo, rat", "settings": "10 mg/kg i.v., given after the lactone", "method": "Direct blood pressure measurements—For direct blood pressure (BP) evaluation, Sprague-Dawley 5/6Nx rats were deeply anesthetized by an injection of 87 mg/kg ketamine and 13 mg/kg xylazine (intramuscular) mixture. Next, the rats were instrumented with a venous line and an arterial line. Specifically, using 26G i.v. cannula (BD Neoflon, Helsinborg, Sweden) we punctured one of the tail veins, and installed the cannula. Next, 1 ml of saline heparin (500 IU/ml) mixture was administered to avoid blood clotting. Concomitantly, we installed the arterial line, after a neck incision we bluntly exposed the right carotid and ligated it distally. Then the artery was clamped proximally and incised between the ligation and the clamp. A 100 PE tube was advanced into the artery and tightened in it by second ligature aimed to avoid blood leakage, and then we removed the arterial clamp. The external tube was attached to a Luer stopcock valve, through which saline could be injected, blood withdrawn and to be connected to a pressure transducer.\nUpon connecting and stabilization, signals were continuously sampled at a sampling rate of 200 samples/sec by the MPVS-300 system, recorded.\nBasal BP was recorded for 10 min, after which time 0.5 ml 5,6-diHETE lactone (0.3 mg/kg and 3 mg/kg) dissolved in saline+DMSO (9:1) were injected through the venous line, and BP was recorded for additional 10 min after injection. For control, two distinct, known BP lowering agents were used consecutively, labetalol (10 mg/kg) a known a and p adrenergic inhibitor, and amlodipine (1.5 mg/kg) a calcium channel blocker (each by 0.5 ml venous injection). BP was recorded for additional 10 min after each injection. Specifically, after lactone effect recording labetalol was administered and 10 min later the amlodipine. We terminated the experiment by venous administration of 1M KCl overdose, until the heart stopped."}}}
{"smiles": "CC/C=C\\C/C=C\\C/C=C\\C/C=C\\CC(O)C(O)CCCC(=O)O", "note": "(racemic) [5,6-diHETE, (±)5,6-dihydroxy-8Z,11Z,14Z,17Z-eicosatetraenoic acid]", "values": [{"measurement": "lowest concentration causing a significant [Ca2+] increase", "setting": "HUVEC", "value": 5, "unit": "µmol/L"}, {"measurement": "changes in cellular [Ca2+]i", "setting": "HUVEC; 2 μmol/L", "value": "not"}]}
{"smiles": "CC(=O)OCC[N+](C)(C)C", "note": "[Acetylcholine, acetylcholine, reference compound]", "values": [{"measurement": "% relaxation (relative to papaverine)", "setting": "rat mesenteric arteries; 5/6Nx vessels", "value": "63.2±15.6", "unit": "%"}, {"measurement": "% relaxation (relative to papaverine)", "setting": "rat mesenteric arteries; NT vessels", "value": "94.8±5.5", "unit": "%"}]}
{"smiles": "CC(CCc1ccccc1)NCC(O)c1ccc(O)c(C(N)=O)c1", "note": "(centres unmarked) [labetalol, reference compound]", "values": [{"measurement": "percent reduction of SBP from baseline", "setting": "[1]", "value": "about 20%"}]}
